Reference: US20050037956A1, “Screening method for agents useful in treating diabetes” (priority 2001, published 2005)

Tests used:
PAI-1 expression = test: PAI-1 induction by insulin in adipocytes in presence of PI3K or MEK1 inhibitors; type: cell-based; details: adipocytes treated by insulin in presence of inhibitor
Procedure: (§1) Adipocyte differentiation was monitored by staining lipids with oil-red O. Briefly, cells were washed twice with phosphate buffered saline (PBS) and fixed with 3.7% formaldehyde solution for 1 h. After washing twice with PBS, cells were stained with oil-red O [60:40 (v/v) dilution in water of 0.5% stock solution (v/v, in isopropanol)] for 1 h. Cells were then washed twice with PBS and twice with water. Lipid-positive cells started to appear after the third day of induction and reached more than 90% by the eighth day. PPARγ (peroxisome proliferator-activated receptor gamma) mRNA, another marker of adipocyte differentiation, also started to appear at the third day and reached a plateau by the 5th day. For RNA analysis, total RNA (12 μg), prepared with acid guanidinium thiocyanate-phenol-chloroform method, was resolved by agarose gel electrophoresis under denaturing conditions and transferred to a nylon membrane as described (Northern blotting) (Ziegler, A., et al., 1991, J Biol Chem 266(31): 21067-74). Equal RNA loading and transfer to nylon membranes were confirmed by staining rRNA with methylene blue (Herrin, D. L. and G. W. Schmidt, 1988, Biotechniques 6(3): 196-7, 199-200). […] Levels of specific RNA were measured using a Molecular Dynamic PhosphorImager. […]

PAI-1 mRNA = PAI-1 mRNA induction by insulin at different stages of NIH3T3-L1 differentiation (Northern blot); type: cell-based
Procedure: NIH3T3-L1 preadipocytes (ATCC No. CL-173) were induced to differentiate into adipocytes by treating confluent cells with a mixture of insulin, dexamethasone and isobutylmethylxanthine followed by a successive change of different media (Student, A. K. et al., 1980, J Biol Chem. 255:4745-4750). In brief, NIH3T3-L1 preadipocytic cells (2×10^5 cells) were grown in 60-mm plastic dishes with 4 ml Dulbecco's modified Eagle's medium (DMEM) supplemented with 10% fetal bovine serum (FBS). Two days after cells reached confluency, the medium was changed to DMEM containing 10% FBS, 10 μg/ml insulin, 1 μM dexamethason, and 0.5 mM isobutylmethylxanthine. Two days later, this medium was replaced with DMEM supplemented only with 10 μg/ml insulin. Subsequently, two days later this medium was withdrawn and replaced with DMEM containing 10% FBS, and thereafter cells were replenished with the same medium every two days.
as §1, with “21067-74).” for “21067-74). Equal RNA loading and transfer to nylon membranes were confirmed by staining rRNA with methylene blue (Herrin, D. L. and G. W. Schmidt, 1988, Biotechniques 6(3): 196-7, 199-200).”

[1] = system: pRB-E2F interaction (E2F-pRB complex); test: Electromobility shift assay (EMSA) with E2pro oligonucleotide and nuclear extracts from day 8 NIH3T3-L1 cells, peptide added to binding reaction; details: in vitro, increasing peptide concentration added to binding reaction, day 8 NIH3T3-L1 nuclear extracts
Procedure: Changes in E2F DNA-binding patterns during adipogenesis were investigated. Nuclear extracts were prepared from NIH3T3-L1 cells at different times during induction of differentiation and their E2F DNA-binding activity was assessed by DNA gel shift assays using a radio active E2pro oligonucleotide corresponding to two tandem E2F binding sites in the adenovirus E2 promoter. Oligonucleotide probes were radiolabeled using E. coli polynucleotide kinase and {γ-32P}ATP. The oligonucleotides used for electromobility shift assays (EMSA) were as follows (only upper strands are given): E2pro (corresponding to the −72 to −32 region of the adenovirus E2 promoter; E2F binding site), 5′-[…]-3′ (SEQ ID NO:1); CycD1 (E2F binding site from the cyclin D1 promoter), 5′-[…]-3′ (SEQ ID NO:2); CycD1m, 5′-[…]-3′ (SEQ ID NO:3, mutated nucleotides in bold italic). […] The gel was dried and analyzed using a PhosphorImager. […]
The specific peptide was modified to improve cell penetration by linking to the amino terminal end of the interfering peptide a specific region of the HIV tat protein of 18 amino acids in length, which renders conjugated peptides cell-penetrable (Schwarze, S. R., et al., 1999, Science 285(5433): 1569-72). The effect of this elongated interfering peptide on E2F was first assessed in vitro as above. […]

COc1cccc(-c2cc(=O)c3ccccc3o2)c1N [PD98059]
PAI-1 induction by insulin (PAI-1 expression): suppressed

insulin
PAI-1 mRNA induction by insulin (PAI-1 mRNA; NIH3T3-L1 cells before cells were confluent): induced to a very low extent
PAI-1 mRNA induction by insulin (PAI-1 mRNA; NIH3T3-L1 cells when confluent): not at all
PAI-1 mRNA induction by insulin (PAI-1 mRNA; terminally differentiated cells (day 4 and 8)): induced markedly

specific interfering peptide: peptide whose sequence was derived from amino acids 402-419 of E2F1 corresponding to the pRB-binding region of E2F1 (LSPPHEALDYHFGLEEGE; UniProt Q01094 402-419, looked up, fragment)
shift of DNA-protein complexes (E2F DNA-binding, EMSA) [1]: shift from DNA-protein complexes of higher molecular weight forms to complexes of lower molecular weight forms
